Source: BindingDB's records for patent US20250084074 (Merck Patent, 2025)

Target: T1, Kinesin-like protein KIFC1 (Homo sapiens, UniProt Q9BW19)
T1 sequence (Q9BW19 whole entry): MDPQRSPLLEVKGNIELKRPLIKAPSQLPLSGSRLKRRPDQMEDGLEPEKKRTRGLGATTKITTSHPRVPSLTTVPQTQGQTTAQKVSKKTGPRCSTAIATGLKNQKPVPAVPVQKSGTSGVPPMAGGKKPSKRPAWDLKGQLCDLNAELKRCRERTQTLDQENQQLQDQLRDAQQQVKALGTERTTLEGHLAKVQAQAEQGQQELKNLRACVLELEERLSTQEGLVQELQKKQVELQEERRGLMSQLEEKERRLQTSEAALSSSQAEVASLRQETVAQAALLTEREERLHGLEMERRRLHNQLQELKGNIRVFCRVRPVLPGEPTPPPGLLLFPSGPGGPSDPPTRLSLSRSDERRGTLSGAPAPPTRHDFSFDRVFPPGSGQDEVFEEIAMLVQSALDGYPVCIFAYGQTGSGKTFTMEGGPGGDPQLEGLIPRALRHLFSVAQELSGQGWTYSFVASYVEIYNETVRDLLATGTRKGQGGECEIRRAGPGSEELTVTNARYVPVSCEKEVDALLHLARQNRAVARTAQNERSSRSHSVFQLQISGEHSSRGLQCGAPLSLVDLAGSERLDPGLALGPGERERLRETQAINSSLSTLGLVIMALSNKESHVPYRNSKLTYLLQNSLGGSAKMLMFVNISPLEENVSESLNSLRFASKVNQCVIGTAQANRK
Assay: Inhibitory Activities Against HSET-HSET ADP-Glo Assay
Procedure: Reagents: (+4° C. Storage)Paclitaxel Prod.No.TXD.01 2 mM in DMSO (from Universal Biologicals Cambridge).Tubulin Protein (Pre-formed Microtubules): Bovine Brain Prod.No.MT001-XL Lot.025 10 mg/mL (from Universal Biologicals Cambridge).Reagents: (−80° C. Storage)MT001-XL—Tubulin Protein (Pre-formed Microtubules): Bovine Brain—reconstituted in buffer—15 mM PIPES pH7, 1 mM MgCl2, 20 μM paclitaxel (aliquots at 10 mg/mL) from Universal Biologicals Cambridge.HSET full length protein—Current batch is FL HSET Prep1 (SEQ-000096_002-01_01)Buffer is 20 mM Hepes pH 7.5, 200 mM NaCl, 2 mM TCEP, 5% glycerol (5 μL aliquots at 10.2 μM)Reagents: (−20° C. Storage)ADP-Glo Kinase Assay kit (Promega Prod.No.V9102) 10,000 assay pointsADP-Glo reagent (50 mL), Kinase Detection Reagent (100 mL), and Ultrapure ATP (10 mM) aliquotedBuffer Stocks (filtered and stored at rt for up to 1 month)HEPES acid, 4-(2-Hydroxyethyl)piperazine-1-ethanesulfonic acid MW:238, 238.3 mg/mL=1 M7149 mg/30 mL=1M (pH to 6.8 with 5 M NaOH)PIPES, 1,4-Piperazinediethanesulfonic acid MW: 302.4, 30.24 mg/mL=100 mM; 907.2 mg/30 mL=100 mM (pH to 7 with 5 M NaOH, white cloudy suspension until the pH changes)EGTA, Ethylene glycol-bis(2-aminoethylether)-N,N,N′,N′-tetraacetic acid MW: 380.35, 38.035 mg/mL=100 mM1901.75 mg/50 mL=100 mM (pH to ˜7 with 5 M NaOH)—takes a long time to get into solution and for pH to stabilizeTriton-X-100, MW: 625, 62.5 mg/mL=100 mM (6.25% w/v) (viscous, pipette Triton X-100 with a Gilson using a trimmed pipette tip)ECHO ProtocolCreate an ECHO intermediate plate by adding 24.5 μL DMSO to columns 1 & 2, and 40 μL DMSO to columns 23 & 24 of an ECHO 384PP plateAdd 100 nL of compound/DMSO per well in 384-well Proxi-Plate Plus (white) —Perkin Elmer Cat #6008289 using ECHO dose response protocol 100 nL normal to Assay buffer (Keep on ice): HEPES pH 6.8, MgCl2, EGTA, Triton X-100, DTT, HPLC H2O Microtubule Working Solution (3.2):1 ml PM buffer: PIPES pH 7.0, MgCl2, HPLC H2O, Paclitaxel, mix well, store at rtThen add 26.4 μL of 10 mg/ml microtubules to 724 μL of the above PM buffer to make 750 μL of microtubule working solution @350 μg/mL microtubules (store at rt)Stock HSET enzyme solution (3.1)—keep on iceAdd 1.33 μL 10.2 μM HSET Prepi (SEQ-000096_002-01_01) to 1358 μL assay buffer to make a 10 nM stock for a 5 nM final assay concentration (1/1020 dilution).HSET/Microtubule working solution (3.3)Mix solutions 3.1 and 3.2 in the ratio of 2.5:1 (1214.3 μL 3.1+485.7 μL 3.2) keep at rt for 15 min3.2 is diluted 3.5-fold, 3.1 is diluted 1.4-fold BLANK solution is 357 μL 2XAB+143 μL microtubule working solution 3.2. (Same proportions as HSET/Microtubule working solution (3.3))ATP Working solution is 1 μL 10 mM UltraPure ATP (Promega kit)+999 μL ddH20 gives 10 μM ATP for a 3 μM final assay concentration, stored on ice.Assay procedure in PROXIPLATE 384 PLUS WHITE (Perkin Elmer) plates (Remove 2.4 mL ADP Glo and 4.5 mL Kinase detection reagent from freezer to warm up to rt)Add 3.5 μL BLANK solution to assay plate (column 12)Add 3.5 μL HSET/Microtubule solution (3.3) (columns 1-11 & 13-24)Centrifuge at 1000 rpm for 1 min(pre-incubate enzyme and compound for 10 min)Add 1.5 μL of 10 μM ATP to start reaction gives a final [HSET] of 5 nM, [ATP] of 3 μM and [microtubule] of 70 μg/mL, centrifuge at 1000 rpm for 1 min and incubated at rt for 80 min.After the 80-minute incubation, stop reaction by adding 5 μL ADP-Glo reagent to all wells. Centrifuge for 1 min at 1000 rpm, leave for 40 min at rt.In the dark/away from direct light, add 10 μL Kinase Detection Reagent (KDR) to all wells, Seal plate with a Topseal (Perkin Elmer Cat #6050185) and centrifuge as above, leave for 40 min at rt covered in foil.

Compound | IC50
CCCc1nc(-c2cnc(NC(=O)CCNc3nccc4ccc(-c5noc(C)n5)cc34)s2)no1 [US20250084074, Example 119] | 0.067 µM
Cc1nc(NC(=O)CCNc2nccc3c(F)cc(C#N)cc23)sc1C(C)(C)C [US20250084074, Example 53] | 0.24 µM
Cc1nc(-c2ccc3ccnc(N[C@H]4C[C@@H](C(=O)Nc5nc(C)c(Br)s5)C4)c3c2)no1 [US20250084074, Example 97] | 1.15 µM
CCc1nc(NC(=O)[C@@H](N)CNC(=O)c2cccc(-c3noc(C)n3)c2)sc1C(C)(C)C [US20250084074, Example 161] | 2.15 µM
Cc1nc(-c2cccc(C(=O)NCCC(=O)Nc3cnn(C(=O)OC(C)(C)C)c3)c2)no1 [US20250084074, Example 274] | 6.4 µM
Cc1nc(NC(=O)CCNc2nccc3ccc(C#N)cc23)sc1C(C)(C)C [US20250084074, Example 50] | 0.199 µM
CCCOC(=O)c1sc(NC(=O)[C@@H](N)CNC(=O)c2cccc(-c3noc(C)n3)c2)nc1C [US20250084074, Example 160] | 0.054 µM
CCCOC(=O)c1sc(C(=O)N2CC[C@@H](NC(=O)c3cccc(-c4noc(C)n4)c3)C2)nc1C [US20250084074, Example 241] | 3.08 µM
Cc1nc(NC(=O)CCNc2nccc3ccc(C#N)cc23)sc1C1(C(F)(F)F)CC1 [US20250084074, Example 51] | 1.6 µM
Cc1nnn(-c2ccc3ccnc(NCCC(=O)Nc4nc(C)c(C(C)(C)C)s4)c3c2)n1 [US20250084074, Example 58] | 0.014 µM
Cc1nc(-c2cccc(C(=O)NCCC(=O)Nc3nc(C)c(C(F)(F)F)s3)c2)no1 [US20250084074, Example 139] | 2.16 µM
Cc1nc(-c2ccc3ccnc(NCCC(=O)Nc4nc(C)c(C(C)(C)C)s4)c3c2)no1 [US20250084074, Example 75] | 0.078 µM
